In the NIST ThermoML archive (doi:10.1016/j.fluid.2014.10.015):

Settings: for mass density / viscosity: Liquid; for mass density: Vibrating tube method; for viscosity: Concentric cylinders viscometry; for surface tension liquid-gas: Pendant drop shape

CC(=O)[O-].CCCCn1cc[n+](C)c1 [1-butyl-3-methylimidazolium acetate]
Settings	mass density [kg/m3]	viscosity [mPa·s]
273.15 K, 101 kPa	1068.3	–
273.15 K, 101.33 kPa	1068.29	–
273.15 K, 238 kPa	1068.35	–
273.15 K, 5002 kPa	1070.1	–
273.15 K, 10020 kPa	1071.93	–
273.15 K, 19968 kPa	1075.5	–
273.15 K, 29945 kPa	1079.01	–
273.15 K, 40001 kPa	1082.46	–
273.15 K, 49987 kPa	1085.81	–
273.15 K, 59935 kPa	1089.07	–
273.15 K, 69985 kPa	1092.29	–
273.15 K, 79928 kPa	1095.39	–
273.15 K, 90040 kPa	1098.47	–
273.15 K, 99956 kPa	1101.42	–
273.15 K, 109260 kPa	1104.11	–
273.15 K, 119925 kPa	1107.11	–
273.15 K, 129945 kPa	1109.85	–
273.15 K, 139956 kPa	1112.52	–
278.15 K, 101.33 kPa	–	3157.5
278.17 K, 101.33 kPa	1065.11	–
283.12 K, 747 kPa	1062.18	–
283.13 K, 5103 kPa	1063.85	–
283.15 K, 101 kPa	1061.93	–
283.15 K, 101.33 kPa	–	1818.3
283.15 K, 59694 kPa	1083.4	–
283.15 K, 70000 kPa	1086.8	–
283.15 K, 79404 kPa	1089.83	–
283.15 K, 90034 kPa	1093.15	–
283.15 K, 98553 kPa	1095.75	–
283.15 K, 109979 kPa	1099.13	–
283.15 K, 120352 kPa	1102.1	–
283.15 K, 129998 kPa	1104.78	–
283.15 K, 139706 kPa	1107.39	–
283.16 K, 9902 kPa	1065.67	–
283.16 K, 29987 kPa	1073.08	–
283.16 K, 39574 kPa	1076.5	–
283.16 K, 50021 kPa	1080.12	–
283.17 K, 101.33 kPa	1061.96	–
283.17 K, 19845 kPa	1069.38	–
293.13 K, 99228 kPa	1090.59	–
293.13 K, 110000 kPa	1093.89	–
293.13 K, 120552 kPa	1097.03	–
293.13 K, 130029 kPa	1099.77	–
293.13 K, 139794 kPa	1102.51	–
293.14 K, 19892 kPa	1063.32	–
293.14 K, 89975 kPa	1087.68	–
293.15 K, 101 kPa	1055.7	–
293.15 K, 101.33 kPa	1055.7	689.5
293.15 K, 928 kPa	1056.02	–
293.15 K, 10042 kPa	1059.57	–
293.15 K, 29991 kPa	1067.08	–
293.15 K, 50024 kPa	1074.3	–
293.15 K, 59451 kPa	1077.57	–
293.15 K, 70011 kPa	1081.16	–
293.15 K, 79858 kPa	1084.42	–
293.16 K, 4731 kPa	1057.51	–
293.16 K, 39318 kPa	1070.48	–
298.13 K, 119989 kPa	1094.32	–
298.14 K, 19965 kPa	1060.4	–
298.14 K, 59928 kPa	1075.03	–
298.15 K, 101 kPa	1052.59	–
298.15 K, 101.33 kPa	1052.59	447.5
298.15 K, 1002 kPa	1052.95	–
298.15 K, 10002 kPa	1056.52	–
298.15 K, 29947 kPa	1064.19	–
298.15 K, 49953 kPa	1071.51	–
298.15 K, 70002 kPa	1078.49	–
298.15 K, 89954 kPa	1085.08	–
298.15 K, 109924 kPa	1091.31	–
298.15 K, 129954 kPa	1097.2	–
298.15 K, 139957 kPa	1100.01	–
298.16 K, 5001 kPa	1054.55	–
298.16 K, 39934 kPa	1067.89	–
298.16 K, 80006 kPa	1081.84	–
298.16 K, 99359 kPa	1088.06	–
313.13 K, 101.33 kPa	1043.35	–
313.13 K, 20418 kPa	1051.65	–
313.13 K, 30021 kPa	1055.44	–
313.13 K, 39510 kPa	1059.09	–
313.13 K, 50039 kPa	1063.04	–
313.14 K, 59562 kPa	1066.53	–
313.14 K, 139775 kPa	1092.44	–
313.15 K, 101 kPa	1043.35	–
313.15 K, 101.33 kPa	–	155
313.15 K, 70013 kPa	1070.25	–
313.15 K, 119744 kPa	1086.54	–
313.15 K, 129979 kPa	1089.6	–
313.16 K, 10222 kPa	1047.54	–
313.16 K, 79427 kPa	1073.52	–
313.16 K, 89989 kPa	1077.08	–
313.16 K, 98994 kPa	1080.03	–
313.16 K, 109981 kPa	1083.53	–
313.17 K, 5238 kPa	1045.49	–
313.18 K, 1226 kPa	1043.82	–
333.13 K, 101.33 kPa	1031.21	–
333.14 K, 9567 kPa	1035.37	–
333.15 K, 101 kPa	1031.21	–
333.15 K, 101.33 kPa	–	53.5
333.15 K, 628 kPa	1031.45	–
333.15 K, 4971 kPa	1033.37	–
333.15 K, 20116 kPa	1039.9	–
333.15 K, 29979 kPa	1044.01	–
333.15 K, 49981 kPa	1052.04	–
333.15 K, 59681 kPa	1055.77	–
333.15 K, 70024 kPa	1059.64	–
333.15 K, 79610 kPa	1063.12	–
333.16 K, 39561 kPa	1047.91	–
333.16 K, 89976 kPa	1066.77	–
333.17 K, 99080 kPa	1069.88	–
333.17 K, 109991 kPa	1073.48	–
333.17 K, 120185 kPa	1076.74	–
333.17 K, 129974 kPa	1079.75	–
333.17 K, 139981 kPa	1082.73	–
343.16 K, 101.33 kPa	1025.2	–
353.12 K, 1410 kPa	1019.9	–
353.12 K, 139714 kPa	1072.82	–
353.13 K, 120068 kPa	1066.76	–
353.13 K, 130015 kPa	1069.89	–
353.14 K, 4959 kPa	1021.56	–
353.14 K, 99015 kPa	1059.73	–
353.14 K, 109983 kPa	1063.46	–
353.15 K, 101 kPa	1019.28	–
353.15 K, 101.33 kPa	1019.28	24.4
353.15 K, 60022 kPa	1045.25	–
353.15 K, 70021 kPa	1049.15	–
353.15 K, 80038 kPa	1052.92	–
353.15 K, 90002 kPa	1056.56	–
353.16 K, 9951 kPa	1023.86	–
353.16 K, 49992 kPa	1041.22	–
353.17 K, 20183 kPa	1028.49	–
353.17 K, 29998 kPa	1032.8	–
353.18 K, 39534 kPa	1036.88	–
373.14 K, 19875 kPa	1017.03	–
373.14 K, 139805 kPa	1063.23	–
373.15 K, 101 kPa	1007.58	–
373.15 K, 101.33 kPa	–	13.8
373.15 K, 9977 kPa	1012.37	–
373.15 K, 99180 kPa	1049.72	–
373.15 K, 110012 kPa	1053.53	–
373.15 K, 120856 kPa	1057.2	–
373.15 K, 129989 kPa	1060.16	–
373.16 K, 4871 kPa	1009.91	–
373.16 K, 29995 kPa	1021.67	–
373.16 K, 49968 kPa	1030.42	–
373.16 K, 59224 kPa	1034.29	–
373.16 K, 90022 kPa	1046.37	–
373.17 K, 2297 kPa	1008.66	–
373.17 K, 39711 kPa	1025.99	–
373.17 K, 69994 kPa	1038.66	–
373.18 K, 79589 kPa	1042.42	–
393.13 K, 5180 kPa	998.69	–
393.14 K, 60153 kPa	1024.29	–
393.14 K, 69980 kPa	1028.4	–
393.14 K, 80125 kPa	1032.49	–
393.14 K, 120002 kPa	1047.09	–
393.15 K, 101 kPa	996.11	–
393.15 K, 3086 kPa	997.63	–
393.15 K, 10081 kPa	1001.16	–
393.15 K, 20117 kPa	1006.09	–
393.15 K, 30011 kPa	1010.81	–
393.15 K, 40130 kPa	1015.49	–
393.15 K, 49985 kPa	1019.89	–
393.15 K, 90011 kPa	1036.33	–
393.15 K, 109214 kPa	1043.37	–
393.15 K, 130005 kPa	1050.39	–
393.16 K, 99789 kPa	1039.98	–
393.16 K, 139958 kPa	1053.52	–
413.12 K, 2006 kPa	985.88	–
413.12 K, 5092 kPa	987.51	–
413.13 K, 20186 kPa	995.28	–
413.14 K, 30014 kPa	1000.15	–
413.14 K, 40204 kPa	1005.02	–
413.14 K, 49979 kPa	1009.54	–
413.14 K, 60179 kPa	1014.09	–
413.14 K, 70022 kPa	1018.33	–
413.14 K, 99791 kPa	1030.18	–
413.14 K, 119957 kPa	1037.4	–
413.14 K, 139956 kPa	1043.92	–
413.15 K, 101 kPa	984.86	–
413.15 K, 79800 kPa	1022.54	–
413.15 K, 90200 kPa	1026.45	–
413.15 K, 109956 kPa	1033.9	–
413.15 K, 129954 kPa	1040.74	–
413.16 K, 10624 kPa	990.4	–

Settings	surface tension liquid-gas [mN/m]
293.2 K	37.87
298.2 K	37.61
303.2 K	37.36
308.2 K	37.11
313.2 K	36.88
318.2 K	36.63
323.2 K	36.42
328.2 K	36.2
